Experimental data as given in patent publication US6969730B2, “Amines as histamine-3 receptor ligands and their therapeutic applications” (Abbott Laboratories, priority 2001, dated 2005).
Counter-ions that a name gives are not always drawn.

tested on: not given; experiment: not given; conditions: not given

melting point [°C] | Compound
147 | CC[C@@H]1CCCN1CCc1cc2cc(-c3ccc(C#N)cc3)ccc2o1 (as salt: tartrate) [Example 163, 4-(2-{2-[(2R)-2-ethyl-1-pyrrolidinyl]ethyl}-1-benzofuran-5-yl)benzonitrile]
156.3 | N#Cc1ccc(-c2ccc3oc(CCN4CCC[C@H]4CF)cc3c2)cc1 (as salt: tartrate) [Example 164, 4-(2-{2-[(2S)-2-(fluoromethyl)-1-pyrrolidinyl]ethyl}-1-benzofuran-5-yl)benzonitrile]
118 to 120 | N#Cc1ccc(-c2ccc3oc(CCN)cc3c2)cc1 [Example 162, 4-[2-(2-aminoethyl)-1-benzofuran-5-yl]benzonitrile]

target: T1, histamine-3 receptors (H3 receptor) (Rattus norvegicus, UniProt Q9QYN8); experiment: (3H)-N-α-methylhistamine binding to rat cortical membranes (histamine-3 receptor ligands); conditions: male Sprague-Dawley rat brain cortical membranes; (3H)-N-α-methylhistamine ~0.6 nM; 30 minutes at 25° C.; Cheng-Prusoff
T1 construct: from tissue; host or cells: male Sprague-Dawley rat brain cortex membranes
Procedure: Briefly, male Sprague-Dawley rat brain cortices were homogenized (1 g tissue/10 mL buffer) in 50 mM Tris-HCl/5 mM EDTA containing protease inhibitor cocktail (Calbiochem) using a polytron set at 20,500 rpm. Homogenates were centrifuged for 20 minutes at 40,000×g. The supernatant was decanted, and pellets were weighed. The pellet was resuspended by polytron homogenization in 40 mL 50 mM Tris-HCl/5 mM EDTA with protease inhibitors and centrifuged for 20 minutes at 40,000×g. […] Rat cortical membranes (12 mg wet weight/tube) were incubated with (^3H)-N-α-methylhistamine (˜0.6 nM) with or without H3 receptor antagonists in a total incubation volume of 0.5 mL of 50 mM Tris-HCl/5 mM EDTA (pH 7.7). Test compounds were dissolved in DSMO to provide a 20 mM solution, serially diluted and then added to the incubation mixture prior to initiating the incubation assay by addition of the membranes. Thioperamide (3 μM) was used to determine nonspecific binding. Binding incubations were conducted for 30 minutes at 25° C. and terminated by addition of 2 mL of ice cold 50 mM Tris-HCl (pH 7.7) and filtration through 0.3% polyethylenimine-soaked Unifilter plates (Packard). These filters were washed 4 additional times with 2 mL of ice-cold 50 mM Tris-HCl and dried for 1 hour. Radioactivity was determined using liquid scintillation counting techniques. Results were analyzed by Hill transformation and Ki values were determined using the Cheng-Prusoff equation.

T1 sequence (Q9QYN8 whole entry): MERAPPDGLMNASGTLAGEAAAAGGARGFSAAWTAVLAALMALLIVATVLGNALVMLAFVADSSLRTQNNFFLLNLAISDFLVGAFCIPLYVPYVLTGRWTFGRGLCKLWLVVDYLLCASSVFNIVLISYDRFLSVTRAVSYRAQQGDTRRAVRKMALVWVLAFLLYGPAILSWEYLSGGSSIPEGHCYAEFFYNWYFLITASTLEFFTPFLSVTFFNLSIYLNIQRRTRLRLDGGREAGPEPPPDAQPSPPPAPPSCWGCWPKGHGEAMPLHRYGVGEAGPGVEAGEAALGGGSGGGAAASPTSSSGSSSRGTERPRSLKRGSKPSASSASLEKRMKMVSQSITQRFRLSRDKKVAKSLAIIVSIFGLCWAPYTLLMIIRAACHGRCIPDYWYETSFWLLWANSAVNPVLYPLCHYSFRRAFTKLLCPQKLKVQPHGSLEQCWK

Compound | Ki [nM]
Cc1cc(-c2ccc3oc(CCN4CCC[C@H]4C)c(Br)c3c2)ccc1C#N [Example 155, 4-(3-bromo-2-{2-[(2R)-2-methyl-1-pyrrolidinyl]ethyl}-1-benzofuran-5-yl)-2-methylbenzonitrile] | 16
C[C@@H]1CCCN1CCc1oc2ccc(-c3ccc(C#N)cc3)cc2c1Cl [Example 156A, 4-(3-chloro-2-{2-[(2R)-2-methyl-1-pyrrolidinyl]ethyl}-1-benzofuran-5-yl)benzonitrile] | 3.7
C[C@@H]1CCCN1CCc1oc2cc(Cl)c(-c3ccc(C#N)cc3)cc2c1Cl [Example 156B, 4-(3,6-dichloro-2-{2-[(2R)-2-methyl-1-pyrrolidinyl]ethyl}-1-benzofuran-5-yl)benzonitrile] | 9.7
C[C@@H]1CCCN1CCc1oc2ccc(-c3ccc(C#N)cc3)cc2c1I [Example 157, 4-(3-iodo-2-{2-[(2R)-2-methyl-1-pyrrolidinyl]ethyl}-1-benzofuran-5-yl)benzonitrile] | 8.4
C[C@@H]1CCC(=O)N1CCc1cc2cc(-c3ccc(C#N)cc3)ccc2o1 [Example 158, 4-(2-{2-[(2R)-2-methyl-5-oxo-1-pyrrolidinyl]ethyl}-1-benzofuran-5-yl)benzonitrile] | > 1000
CC(=O)c1c(CCN2CCC[C@H]2C)oc2ccc(-c3ccc(C#N)cc3)cc12 [Example 159, 4-(3-acetyl-2-{2-[(2R)-2-methyl-1-pyrrolidinyl]ethyl}-1-benzofuran-5-yl)benzonitrile] | 14
C[C@@H]1CCCN1CCc1cc2cc(-c3ccc(C(=O)C4CC4)cc3)ccc2o1 [Example 160, cyclopropyl[4-(2-{2-[(2R)-2-methyl-1-pyrrolidinyl]ethyl}-1-benzofuran-5-yl)phenyl]methanone] | 7.6
(2R)-1-{2-[5-(4-methoxyphenyl)-1-benzofuran-2-yl]ethyl}-2-methylpyrrolidine [Example 121] | 51
(2S)-1-(2-{5-[5-(4-morpholinylcarbonyl)-2-pyridinyl]-1-benzofuran-2-yl}ethyl)-2-pyrrolidinol [Example 62] | 112

Now from value to compound:

Ki [nM] | Compound
1.6 | Cc1noc(C)c1-c1ccc2oc(CCN3CCC[C@H]3C)cc2c1 [Example 161, 3,5-dimethyl-4-(2-{2-[(2R)-2-methyl-1-pyrrolidinyl]ethyl}-1-benzofuran-5-yl)isoxazole]
581 | N#Cc1ccc(-c2ccc3oc(CCN)cc3c2)cc1 [Example 162, 4-[2-(2-aminoethyl)-1-benzofuran-5-yl]benzonitrile]
3.7 | CC[C@@H]1CCCN1CCc1cc2cc(-c3ccc(C#N)cc3)ccc2o1 [Example 163, 4-(2-{2-[(2R)-2-ethyl-1-pyrrolidinyl]ethyl}-1-benzofuran-5-yl)benzonitrile]
24 | N#Cc1ccc(-c2ccc3oc(CCN4CCC[C@H]4CF)cc3c2)cc1 [Example 164, 4-(2-{2-[(2S)-2-(fluoromethyl)-1-pyrrolidinyl]ethyl}-1-benzofuran-5-yl)benzonitrile]
16.8 | C[C@@H]1CCCN1CCc1cc2cc(-c3ccc(C#N)cc3)ccc2s1 [Example 165, 4-(2-{2-[(2R)-2-methyl-1-pyrrolidinyl]ethyl}-1-benzothien-5-yl)benzonitrile]
